How the values were obtained:
Type in all cases: cell-based
[1] = biological target: T1, human ERβ (full-length) (Homo sapiens, UniProt Q92731); assay: U2OS-ERβ/3xERE luciferase reporter cell line (full-length receptor); conditions: read-out: Log EC50 (converted)
T1 construct: expression vectors encoding full-length steroid receptors: pcDNA3-hERα and pcDNA3-ERβ; expressed in transfected cells; host or cells: U2OS

[2] = biological target: T2, ERβ-LBD fused to Gal4-DBD (Homo sapiens, UniProt Q92731); assay: U2OS-ERβ-LBD/9xGal4UAS luciferase reporter cell line; conditions: read-out: Log EC50 (converted)
T2 construct: region comprising ERβ-LBD and a piece of the hinge region; expressed in transfected cells; host or cells: U2OS
T2 sequence (Q92731 264-498 limits assumed): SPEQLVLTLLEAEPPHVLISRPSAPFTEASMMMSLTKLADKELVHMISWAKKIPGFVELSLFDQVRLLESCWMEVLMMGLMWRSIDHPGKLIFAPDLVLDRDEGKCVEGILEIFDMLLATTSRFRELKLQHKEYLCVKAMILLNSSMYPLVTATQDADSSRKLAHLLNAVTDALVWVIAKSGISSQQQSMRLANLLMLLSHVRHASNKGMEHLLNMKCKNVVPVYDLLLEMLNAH

[3] = biological target: T3, human AR (full-length) (Homo sapiens, UniProt P10275); assay: U2OS-AR/3xGRE luciferase reporter cell line (full-length receptor)
T3 construct: expression vectors encoding full-length steroid receptors: pcDNA3-hAR and pcDNA3-hGR; host or cells: U2OS
T3 sequence (P10275 1-920): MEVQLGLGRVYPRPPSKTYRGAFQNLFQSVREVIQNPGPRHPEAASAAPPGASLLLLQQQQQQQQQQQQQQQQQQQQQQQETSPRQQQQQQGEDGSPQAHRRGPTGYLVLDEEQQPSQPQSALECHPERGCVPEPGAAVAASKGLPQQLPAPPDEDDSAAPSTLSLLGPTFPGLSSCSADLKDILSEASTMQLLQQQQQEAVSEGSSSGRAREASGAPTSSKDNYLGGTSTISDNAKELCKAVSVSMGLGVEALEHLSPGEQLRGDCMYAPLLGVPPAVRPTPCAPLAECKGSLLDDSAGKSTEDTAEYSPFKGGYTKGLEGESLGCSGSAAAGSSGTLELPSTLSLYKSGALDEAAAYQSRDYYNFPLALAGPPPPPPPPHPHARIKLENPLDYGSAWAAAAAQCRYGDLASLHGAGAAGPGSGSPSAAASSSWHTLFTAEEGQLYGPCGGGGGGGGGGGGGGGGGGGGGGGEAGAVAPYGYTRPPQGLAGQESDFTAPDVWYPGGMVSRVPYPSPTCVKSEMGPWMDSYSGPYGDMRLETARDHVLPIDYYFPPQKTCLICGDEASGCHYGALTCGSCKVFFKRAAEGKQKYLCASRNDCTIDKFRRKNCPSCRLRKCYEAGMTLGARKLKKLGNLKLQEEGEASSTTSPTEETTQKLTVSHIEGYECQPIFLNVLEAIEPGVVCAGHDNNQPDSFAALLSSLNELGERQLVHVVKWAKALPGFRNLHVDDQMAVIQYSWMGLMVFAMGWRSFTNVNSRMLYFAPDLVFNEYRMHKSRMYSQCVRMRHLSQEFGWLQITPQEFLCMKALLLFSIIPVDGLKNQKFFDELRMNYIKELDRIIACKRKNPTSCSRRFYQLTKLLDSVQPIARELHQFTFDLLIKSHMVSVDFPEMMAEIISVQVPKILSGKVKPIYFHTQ

[4] = biological target: T3, human AR (full-length); assay: U2OS-AR/MMTV luciferase reporter cell line (full-length receptor)
[5] = biological target: T4, AR-LBD fused to Gal4-DBD (co-expressed with full-length AR) (Homo sapiens, UniProt P10275); assay: U2OS-AR-LBD/9xGal4UAS luciferase reporter cell line
T4 construct: the following primers were used for the amplification of the LBD region; expressed in transfected cells; host or cells: U2OS
T4 sequence (P10275 669-900 limits assumed): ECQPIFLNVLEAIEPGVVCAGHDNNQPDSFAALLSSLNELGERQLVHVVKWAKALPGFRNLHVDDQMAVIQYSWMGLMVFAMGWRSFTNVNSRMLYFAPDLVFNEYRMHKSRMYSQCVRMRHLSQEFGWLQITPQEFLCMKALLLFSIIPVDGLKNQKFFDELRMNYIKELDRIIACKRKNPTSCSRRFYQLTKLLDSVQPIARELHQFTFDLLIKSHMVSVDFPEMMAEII

[6] = biological target: T5, human MR (full-length) (Homo sapiens, UniProt P08235); assay: U2OS-MR/MMTV luciferase reporter cell line (full-length receptor); conditions: read-out: Log EC50 (converted)
T5 construct: expression vectors encoding full-length steroid receptors: pcDNA3-hAR, pcDNA3-hGR and pcDNA3-hMR; expressed in transfected cells; host or cells: U2OS
T5 sequence (P08235 1-984): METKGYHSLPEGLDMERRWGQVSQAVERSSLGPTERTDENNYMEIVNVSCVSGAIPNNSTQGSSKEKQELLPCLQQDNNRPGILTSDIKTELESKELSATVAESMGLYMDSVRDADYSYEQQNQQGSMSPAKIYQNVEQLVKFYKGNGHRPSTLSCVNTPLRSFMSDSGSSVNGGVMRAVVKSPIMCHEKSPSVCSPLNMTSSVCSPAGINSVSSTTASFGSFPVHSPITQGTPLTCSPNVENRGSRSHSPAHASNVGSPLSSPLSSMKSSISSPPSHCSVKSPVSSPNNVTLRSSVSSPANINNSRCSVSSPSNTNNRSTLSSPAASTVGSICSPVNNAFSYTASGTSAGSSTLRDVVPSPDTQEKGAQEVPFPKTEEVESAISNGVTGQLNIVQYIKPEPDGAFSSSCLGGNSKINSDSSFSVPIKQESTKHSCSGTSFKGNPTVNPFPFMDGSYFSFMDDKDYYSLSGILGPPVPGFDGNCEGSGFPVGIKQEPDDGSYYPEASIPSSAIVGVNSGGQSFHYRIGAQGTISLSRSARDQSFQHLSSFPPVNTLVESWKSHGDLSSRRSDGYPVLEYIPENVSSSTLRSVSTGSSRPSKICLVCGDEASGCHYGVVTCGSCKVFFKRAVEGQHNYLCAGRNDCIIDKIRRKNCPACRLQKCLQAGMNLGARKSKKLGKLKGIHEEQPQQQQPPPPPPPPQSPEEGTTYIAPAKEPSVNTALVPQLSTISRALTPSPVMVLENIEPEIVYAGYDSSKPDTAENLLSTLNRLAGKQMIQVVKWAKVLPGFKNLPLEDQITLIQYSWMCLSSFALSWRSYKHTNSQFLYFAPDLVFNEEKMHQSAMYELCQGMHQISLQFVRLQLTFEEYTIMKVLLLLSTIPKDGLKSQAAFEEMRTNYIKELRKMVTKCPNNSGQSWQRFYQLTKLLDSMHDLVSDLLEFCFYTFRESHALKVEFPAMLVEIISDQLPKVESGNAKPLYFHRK

[7] = biological target: T6, MR-LBD fused to Gal4-DBD (Homo sapiens, UniProt P08235); assay: U2OS-MR-LBD/9xGal4UAS luciferase reporter cell line; conditions: read-out: Log EC50 (converted)
T6 construct: MR-LBD was cloned by RT-PCR from total RNA isolated from HEK293 cells; expressed in transfected cells; host or cells: U2OS
T6 sequence (P08235 726-964 limits assumed): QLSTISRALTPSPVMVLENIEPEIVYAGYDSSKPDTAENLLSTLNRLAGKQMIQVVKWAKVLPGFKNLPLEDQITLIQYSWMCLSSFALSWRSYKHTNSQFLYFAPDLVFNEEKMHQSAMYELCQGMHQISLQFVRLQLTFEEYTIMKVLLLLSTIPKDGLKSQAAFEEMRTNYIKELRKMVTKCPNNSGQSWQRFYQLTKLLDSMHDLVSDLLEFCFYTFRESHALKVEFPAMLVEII

[8] = biological target: T7, PR-LBD fused to Gal4-DBD (Homo sapiens, UniProt P06401); assay: U2OS-PR-LBD/9xGal4UAS luciferase reporter cell line
T7 construct: PR-LBD region was PCR amplified using the following primer combination; host or cells: U2OS
T7 sequence (P06401 679-913 limits assumed): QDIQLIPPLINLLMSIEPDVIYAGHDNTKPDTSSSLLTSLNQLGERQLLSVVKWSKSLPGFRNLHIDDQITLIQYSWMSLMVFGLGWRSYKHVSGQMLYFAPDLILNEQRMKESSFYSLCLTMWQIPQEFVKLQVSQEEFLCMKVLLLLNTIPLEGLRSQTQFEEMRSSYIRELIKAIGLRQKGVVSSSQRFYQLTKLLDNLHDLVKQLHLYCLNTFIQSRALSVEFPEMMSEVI

T1 sequence (Q92731 whole entry): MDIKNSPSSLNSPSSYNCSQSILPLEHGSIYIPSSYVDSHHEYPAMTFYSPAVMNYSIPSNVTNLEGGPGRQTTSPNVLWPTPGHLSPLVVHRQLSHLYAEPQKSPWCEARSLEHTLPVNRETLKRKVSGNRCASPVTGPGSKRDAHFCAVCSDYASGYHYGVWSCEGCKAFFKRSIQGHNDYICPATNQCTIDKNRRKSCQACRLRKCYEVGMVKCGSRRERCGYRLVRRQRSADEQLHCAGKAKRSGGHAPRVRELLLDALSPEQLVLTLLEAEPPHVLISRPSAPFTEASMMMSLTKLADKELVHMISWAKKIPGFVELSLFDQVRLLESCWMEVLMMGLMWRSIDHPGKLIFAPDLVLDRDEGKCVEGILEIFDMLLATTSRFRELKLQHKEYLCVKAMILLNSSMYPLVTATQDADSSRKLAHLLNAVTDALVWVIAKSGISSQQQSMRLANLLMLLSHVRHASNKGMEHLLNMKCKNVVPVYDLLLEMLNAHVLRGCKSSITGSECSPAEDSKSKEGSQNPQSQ

Question: Which EC50 [1] does the source give for C[C@]12CCC(=O)C=C1CC[C@@H]1[C@@H]2[C@@H](O)C[C@@]2(C)[C@H]1CC[C@]2(O)C(=O)CO [Cortisol, cortisol] here?
Answer: > 10 µM

Question: And the EC50 [2]?
Answer: > 10 µM

Question: And the EC50 [3]?
Answer: > 10 µM

Question: What about the EC50 [4] of the same molecule?
Answer: > 10 µM

Question: And the IC50 [4]?
Answer: > 10 µM

Question: What about the EC50 [5] of the same molecule?
Answer: > 10 µM

Question: What about the IC50 [5] of the same molecule?
Answer: > 10 µM

Question: And the EC50 [6]?
Answer: 6.31 nM

Question: And the EC50 [7]?
Answer: 11.2 nM

Question: And the IC50 ([8]; antagonist mode, PR-LBD/9xGal4UAS, log10 of molar IC50, mean ± SEM, read-out: Log IC50 (converted))?
Answer: > 10 µM

Question: And the EC50 ([8]; read-out: Log EC50 (converted))?
Answer: 6.17 µM
